Data taken from US20240317777A1, “NOVEL MACROCYCLIC AMINOPYRAZOLE COMPOUNDS AS CDK2 INHIBITORS” (Accutar Biotechnology Inc., priority 2023, published 2024).
Where two headings read alike, the source gives them in different places.

Key:
[1] = biological target: CDK1-CYCLIN B (Homo sapiens, UniProt P06493); experiment: CDK protein kinase inhibition by ADP-Glo assay, CDK1-CYCLIN B; assay type: biochemical; conditions: for IC50: read-out: CDK1-CYCLINB, IC50; for CDK2 Fold selectivity, CDK1: CDK2 versus CDK1; for CDK2 Fold selectivity against CDK1: fold selectivity for CDK2 over CDK1, recombinant CDK kinases
Sequence of CDK1-CYCLIN B (P06493 whole entry): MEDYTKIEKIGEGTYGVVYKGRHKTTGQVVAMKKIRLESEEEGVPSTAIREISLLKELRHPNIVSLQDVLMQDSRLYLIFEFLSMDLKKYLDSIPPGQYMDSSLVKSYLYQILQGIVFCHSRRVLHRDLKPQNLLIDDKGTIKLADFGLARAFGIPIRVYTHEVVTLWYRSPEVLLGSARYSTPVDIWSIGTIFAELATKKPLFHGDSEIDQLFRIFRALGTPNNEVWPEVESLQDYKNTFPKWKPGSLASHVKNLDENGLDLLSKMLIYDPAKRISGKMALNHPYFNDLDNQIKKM
Sequence of CDK1-CYCLIN B (P14635 whole entry partner): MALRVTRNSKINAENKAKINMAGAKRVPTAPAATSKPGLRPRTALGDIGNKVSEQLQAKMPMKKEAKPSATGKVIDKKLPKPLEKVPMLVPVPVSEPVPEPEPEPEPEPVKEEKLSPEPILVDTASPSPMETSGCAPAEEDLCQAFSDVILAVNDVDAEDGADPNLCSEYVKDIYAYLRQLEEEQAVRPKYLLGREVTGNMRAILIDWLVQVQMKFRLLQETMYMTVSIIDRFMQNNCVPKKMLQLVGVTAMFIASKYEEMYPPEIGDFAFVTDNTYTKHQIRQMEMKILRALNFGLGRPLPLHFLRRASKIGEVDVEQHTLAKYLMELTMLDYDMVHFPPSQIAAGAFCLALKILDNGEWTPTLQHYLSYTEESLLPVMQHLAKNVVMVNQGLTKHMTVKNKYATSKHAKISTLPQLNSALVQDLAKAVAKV
Method: (§1) CDK Protein Kinase Inhibition by ADP-Glo Assay
(§2) This ADP-Glo assay measures ADP formed from a kinase reaction and indirectly quantifies the phosphorylation of peptide substrates by the CDK/cyclin protein complexes. The typical assays were carried out in Nanosyn by combining kinase/cyclin complexes, substrates, compounds, and cofactors (ATP and Mg2+) in a well of a 384-well microtiter plate (Corning 3824) and incubating at 22° C. (Table 1). At the end of the incubation, the reaction is quenched, and conversion is detected by luminescence using the Promega ADP-Glo™ Kinase Assay kit (catalog #V9102).
(§3) Final assay buffer mixture contains: • 100 mM HEPES, pH 7.5 • 0.1% BSA • 0.01% Triton X-100 • 1 mM DTT • 5 mM MgCl2 • 10 μM Sodium Orthovanadate • 100 μM Beta-Glycerophosphate • 1000 μM Ultra Pure ATP (provided in the Promega ADP-Glo™ Kinase Assay kit) • 1% DMSO (from compound)
(§4) Upon completion, 5 μL of the ADP Glo reagent was added to each well and the plate was further incubated at room temperature for 45 minutes. 10 uL of the Kinase Detection Reagent was subsequently added to each well. After 10 minutes of incubation, the plate was read and analyzed on the BioTek Synergy microplate reader using BioTek Gen5 software.

[2] = biological target: CDK2-CYCLIN E1 (Homo sapiens, UniProt P24941); experiment: CDK protein kinase inhibition by ADP-Glo assay, CDK2-CYCLIN E1; assay type: biochemical; conditions: read-out: CDK2-CYCLINE, IC50
Method: as §1, §2, §3, §4

[3] = biological target: CDK4-CYCLIN D1 (Homo sapiens, UniProt P11802); experiment: CDK protein kinase inhibition by ADP-Glo assay, CDK4-CYCLIN D1; assay type: biochemical; conditions: for IC50: read-out: CDK4-CYCLIND1, IC50; for CDK2 Fold selectivity, CDK4: CDK2 versus CDK4; for CDK2 Fold selectivity against CDK4: fold selectivity for CDK2 over CDK4, recombinant CDK kinases
Sequence of CDK4-CYCLIN D1 (P11802 whole entry): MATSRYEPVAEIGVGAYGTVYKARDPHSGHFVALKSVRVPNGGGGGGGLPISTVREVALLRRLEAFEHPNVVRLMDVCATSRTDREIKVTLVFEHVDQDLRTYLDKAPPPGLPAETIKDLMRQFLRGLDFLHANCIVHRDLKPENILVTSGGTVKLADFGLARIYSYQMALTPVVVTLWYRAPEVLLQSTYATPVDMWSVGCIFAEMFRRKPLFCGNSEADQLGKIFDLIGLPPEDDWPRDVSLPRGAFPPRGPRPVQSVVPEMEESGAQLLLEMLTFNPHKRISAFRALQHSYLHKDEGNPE
Sequence of CDK4-CYCLIN D1 (P24385 whole entry partner): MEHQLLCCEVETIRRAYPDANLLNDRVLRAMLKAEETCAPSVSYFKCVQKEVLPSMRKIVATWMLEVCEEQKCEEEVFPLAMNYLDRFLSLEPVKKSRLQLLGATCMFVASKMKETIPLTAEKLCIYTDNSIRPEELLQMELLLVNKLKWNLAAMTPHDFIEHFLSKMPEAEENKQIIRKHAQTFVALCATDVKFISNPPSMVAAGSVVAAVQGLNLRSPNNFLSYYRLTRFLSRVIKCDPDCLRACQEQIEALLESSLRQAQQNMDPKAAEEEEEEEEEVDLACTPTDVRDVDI
Method: as §1, §2, §3, §4

[4] = biological target: CDK6-CYCLIN D3 (Homo sapiens, UniProt Q00534); experiment: CDK protein kinase inhibition by ADP-Glo assay, CDK6-CYCLIN D3; assay type: biochemical; conditions: for IC50: read-out: CDK6-CYCLIND3, IC50; for CDK2 Fold selectivity, CDK6: CDK2 versus CDK6; for CDK2 Fold selectivity against CDK6: fold selectivity for CDK2 over CDK6, recombinant CDK kinases
Sequence of CDK6-CYCLIN D3 (Q00534 whole entry): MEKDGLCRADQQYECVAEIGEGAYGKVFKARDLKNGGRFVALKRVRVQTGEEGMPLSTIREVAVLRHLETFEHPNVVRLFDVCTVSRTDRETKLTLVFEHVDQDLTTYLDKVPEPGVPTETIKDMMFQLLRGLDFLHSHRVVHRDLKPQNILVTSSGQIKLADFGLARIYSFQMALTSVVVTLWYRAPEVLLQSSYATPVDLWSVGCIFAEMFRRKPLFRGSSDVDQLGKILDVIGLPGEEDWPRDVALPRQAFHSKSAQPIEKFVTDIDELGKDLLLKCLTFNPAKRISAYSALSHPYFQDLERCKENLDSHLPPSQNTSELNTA
Sequence of CDK6-CYCLIN D3 (P30281 whole entry partner): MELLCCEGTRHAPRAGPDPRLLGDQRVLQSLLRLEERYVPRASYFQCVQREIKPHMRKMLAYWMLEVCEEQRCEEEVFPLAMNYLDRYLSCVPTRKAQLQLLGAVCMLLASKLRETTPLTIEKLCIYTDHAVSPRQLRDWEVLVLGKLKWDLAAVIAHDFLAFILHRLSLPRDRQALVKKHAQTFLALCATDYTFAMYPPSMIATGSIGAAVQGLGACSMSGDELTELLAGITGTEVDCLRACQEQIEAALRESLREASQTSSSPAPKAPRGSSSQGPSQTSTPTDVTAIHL
Method: as §1, §2, §3, §4

[5] = biological target: CDK9-CYCLIN T1 (Homo sapiens, UniProt P50750); experiment: CDK protein kinase inhibition by ADP-Glo assay, CDK9-CYCLIN T1; assay type: biochemical; conditions: for CDK2 Fold selectivity, CDK9: CDK2 versus CDK9; for CDK2 Fold selectivity against CDK9: fold selectivity for CDK2 over CDK9, recombinant CDK kinases
Sequence of CDK9-CYCLIN T1 (P50750 whole entry): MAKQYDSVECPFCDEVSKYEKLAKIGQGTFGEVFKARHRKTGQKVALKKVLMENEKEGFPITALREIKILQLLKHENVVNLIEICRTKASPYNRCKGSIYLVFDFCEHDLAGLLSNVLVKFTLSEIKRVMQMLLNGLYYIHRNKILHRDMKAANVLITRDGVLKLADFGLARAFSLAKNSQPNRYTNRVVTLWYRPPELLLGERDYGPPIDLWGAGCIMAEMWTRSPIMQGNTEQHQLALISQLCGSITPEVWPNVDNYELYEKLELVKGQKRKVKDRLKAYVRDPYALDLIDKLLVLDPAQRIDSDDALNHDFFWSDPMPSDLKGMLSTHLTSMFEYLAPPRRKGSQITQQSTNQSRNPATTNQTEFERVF
Sequence of CDK9-CYCLIN T1 (O60563 whole entry partner): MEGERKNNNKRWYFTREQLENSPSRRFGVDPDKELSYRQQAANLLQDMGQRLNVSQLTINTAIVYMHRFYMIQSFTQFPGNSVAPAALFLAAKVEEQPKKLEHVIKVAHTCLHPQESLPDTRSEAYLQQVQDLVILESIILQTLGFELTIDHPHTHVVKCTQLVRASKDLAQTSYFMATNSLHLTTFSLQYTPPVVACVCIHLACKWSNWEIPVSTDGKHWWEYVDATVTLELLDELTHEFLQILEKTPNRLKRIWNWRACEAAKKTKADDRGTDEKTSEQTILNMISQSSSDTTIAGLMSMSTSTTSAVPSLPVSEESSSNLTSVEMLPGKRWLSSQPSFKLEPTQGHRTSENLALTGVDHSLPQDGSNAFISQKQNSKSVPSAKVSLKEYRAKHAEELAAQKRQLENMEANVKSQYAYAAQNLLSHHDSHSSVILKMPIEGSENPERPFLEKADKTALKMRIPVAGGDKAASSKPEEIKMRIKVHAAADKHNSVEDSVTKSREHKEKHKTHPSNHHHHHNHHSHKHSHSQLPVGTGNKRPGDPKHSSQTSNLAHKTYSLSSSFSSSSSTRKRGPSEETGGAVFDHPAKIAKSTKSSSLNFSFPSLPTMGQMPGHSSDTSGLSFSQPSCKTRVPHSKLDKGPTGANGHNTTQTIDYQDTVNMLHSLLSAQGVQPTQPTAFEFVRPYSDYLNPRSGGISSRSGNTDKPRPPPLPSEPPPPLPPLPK
Method: as §1, §2, §3, §4

[6] = system: Phospho-Rb (Ser807/811) in OVCAR3 cells; experiment: Phospho-Rb expression inhibition in OVCAR3 cells quantified by In Cell Western; assay type: cell-based; conditions: Homo sapiens, OVCAR-3, 24 hours, read-out: OVCAR-3 pRb IC50
In short: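 In-cell western: after 24 h compound exposure at 37° C, fixed OVCAR3 cells co-stained for pRb Ser807/811 (800 nm channel) and total Rb (680 nm channel), imaged by LI-COR Odyssey.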

[7] = system: CCNE1-amplified OVCAR3 cells; experiment: Cell growth inhibition of CCNE1-amplified OVCAR3 cells (CellTiter-Glo); assay type: cell-based; conditions: Homo sapiens, OVCAR-3, 144 h, 6 days
In short: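 Growth read-out was CellTiter-Glo luminescence, taken after 10 min at room temperature at the end of a 6-day compound exposure at 37 °C. Compounds were diluted from DMSO stocks across various concentrations.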

[8] = system: CCNE1-normal SKOV3 cells; experiment: Cell growth inhibition of CCNE1-normal SKOV3 cells (CellTiter-Glo); assay type: cell-based; conditions: Homo sapiens, SK-OV-3, 144 h, 6 days
In short: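 Growth was measured by CellTiter-Glo luminescence after 6 days' compound exposure at 37 °C. Cells were plated one day before dosing at 1000 per well in medium with 10% FBS, and compounds were diluted from DMSO stocks.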

[9] = Table 35, recombinant CDK kinase
[10] = Table 35, recombinant CDK kinase, read-out: CDK9-CYCLINT1, IC50
[11] = Table 37, recombinant CDK kinase
[12] = Table 37, recombinant CDK kinase, read-out: CDK9-CYCLINT1, IC50

Compound	IC50 [6]	IC50 [7]	IC50 [1, 11]	CDK2 Fold selectivity against CDK1 ([1]; Table 38)	IC50 [2, 11]	IC50 [3, 11]	CDK2 Fold selectivity against CDK4 ([3]; Table 38)	IC50 [4, 11]	CDK2 Fold selectivity against CDK6 ([4]; Table 38)	IC50 [5, 12]	CDK2 Fold selectivity against CDK9 ([5]; Table 38)	further results
O=C1N[C@H]2C[C@@H](CC(F)(F)c3cc(ccn3)Nc3cc(n[nH]3)[C@H]3CC[C@H](C3)O1)C2 (single isomer, unassigned) [Compound 170, (1^1S,1^3R,7^1S,7^3R,Z)-5,5-difluoro-2^1H-10-oxa-3,8-diaza-4(4,2)-pyridina-2(3,5)-pyrazola-1(1,3)-cyclopentana-7(1,3)-cyclobutanacyclodecaphan-9-one]	2 to 10 nM	2 to 10 nM	–	–	–	–	–	–	–	–	–	IC50 ([1]; ADP-Glo, 1000 μM ATP, Table 31): ≤ 10 nM; CDK2 Fold selectivity, CDK1 ([1]; Table 32): E (E, <20); IC50 ([2]; ADP-Glo, 1000 μM ATP, Table 31): ≤ 10 nM; IC50 ([3]; ADP-Glo, 1000 μM ATP, Table 31): 10 to 50 nM; CDK2 Fold selectivity, CDK4 ([3]; Table 32): E (E, <20); IC50 ([4]; ADP-Glo, 1000 μM ATP, Table 31): 10 to 50 nM; CDK2 Fold selectivity, CDK6 ([4]; Table 32): E (E, <20); IC50 ([5]; ADP-Glo, 1000 μM ATP, Table 31, read-out: CDK9-CYCLINT1, IC50): 10 to 50 nM; CDK2 Fold selectivity, CDK9 ([5]; Table 32): E (E, <20); IC50 [8]: 50 to 250 nM
[2H]C1([2H])Oc2cc(ccn2)Nc2cc(n[nH]2)[C@H]2CC[C@H](C2)OC(=O)N[C@H]2C[C@H]1C2 [Compound 177, (1^1S,1^3R,7^1R,7^3S,Z)-2^1H-5,10-dioxa-3,8-diaza-4(4,2)-pyridina-2(3,5)-pyrazola-1(1,3)-cyclopentana-7(1,3)-cyclobutanacyclodecaphan-9-one-6,6-d2]	2 to 10 nM	10 to 50 nM	–	–	–	–	–	–	–	–	–	IC50 ([1]; ADP-Glo, 1000 μM ATP, Table 27): 10 to 50 nM; CDK2 Fold selectivity, CDK1 ([1]; Table 28): E (E, <20); IC50 [1, 9]: 10 to 50 nM; CDK2 Fold selectivity against CDK1 ([1]; Table 36): E (E, <20); IC50 ([2]; ADP-Glo, 1000 μM ATP, Table 27): ≤ 10 nM; IC50 [2, 9]: ≤ 10 nM; IC50 ([3]; ADP-Glo, 1000 μM ATP, Table 27): 50 to 100 nM; CDK2 Fold selectivity, CDK4 ([3]; Table 28): D (D, >20 and ≤50); IC50 [3, 9]: 10 to 50 nM; CDK2 Fold selectivity against CDK4 ([3]; Table 36): E (E, <20); IC50 ([4]; ADP-Glo, 1000 μM ATP, Table 27): 100 to 500 nM; CDK2 Fold selectivity, CDK6 ([4]; Table 28): D (D, >20 and ≤50); IC50 [4, 9]: 10 to 50 nM; CDK2 Fold selectivity against CDK6 ([4]; Table 36): E (E, <20); IC50 ([5]; ADP-Glo, 1000 μM ATP, Table 27, read-out: CDK9-CYCLINT1 IC50): 100 to 500 nM; CDK2 Fold selectivity, CDK9 ([5]; Table 28): D (D, >20 and ≤50); IC50 [5, 10]: 50 to 100 nM; CDK2 Fold selectivity against CDK9 ([5]; Table 36): D (D, >20 and ≤50)
[2H]C1([2H])Oc2cc(ccn2)Nc2[nH]nc(c2F)[C@H]2CC[C@H](C2)OC(=O)N[C@H]2C[C@H]1C2 [Compound 221, (1^1S,1^3R,7^1R,7^3S,E)-24-fluoro-2^1H-5,10-dioxa-3,8-diaza-4(4,2)-pyridina-2(3,5)-pyrazola-1(1,3)-cyclopentana-7(1,3)-cyclobutanacyclodecaphan-9-one-6,6-d2]	10 to 50 nM	10 to 50 nM	–	–	–	–	–	–	–	–	–	IC50 [1, 9]: 50 to 100 nM; CDK2 Fold selectivity against CDK1 ([1]; Table 36): E (E, <20); IC50 [2, 9]: ≤ 10 nM; IC50 [3, 9]: 100 to 500 nM; CDK2 Fold selectivity against CDK4 ([3]; Table 36): C (C, >50 and ≤100); IC50 [4, 9]: 100 to 500 nM; CDK2 Fold selectivity against CDK6 ([4]; Table 36): C (C, >50 and ≤100); IC50 [5, 10]: > 500 nM; CDK2 Fold selectivity against CDK9 ([5]; Table 36): B (B, >100 and ≤500)
O=C1NC2CC(COc3cc(ccn3)Nc3cc(n[nH]3)C3C[C@@H](F)[C@H](C3)O1)C2 [Compound 229, (1^1R,1^3S,1^4R,7^1S,7^3R,Z)-1^4-fluoro-2^1H-5,10-dioxa-3,8-diaza-4(4,2)-pyridina-2(3,5)-pyrazola-1(1,3)-cyclopentana-7(1,3)-cyclobutanacyclodecaphan-9-one]	2 to 10 nM	10 to 50 nM	10 to 50 nM	E (E, <20)	≤ 10 nM	10 to 50 nM	E (E, <20)	10 to 50 nM	E (E, <20)	100 to 500 nM	C (C, >50 and ≤100)	–
O=C1NC2CC(COc3cc(ccn3)Nc3cc(n[nH]3)C3C[C@H](F)[C@@H](C3)O1)C2 [Compound 230, (1^1S,1^3R,1^4S,7^1R,7^3S,Z)-1^4-fluoro-2^1H-5,10-dioxa-3,8-diaza-4(4,2)-pyridina-2(3,5)-pyrazola-1(1,3)-cyclopentana-7(1,3)-cyclobutanacyclodecaphan-9-one]	10 to 50 nM	10 to 50 nM	10 to 50 nM	E (E, <20)	≤ 10 nM	10 to 50 nM	E (E, <20)	10 to 50 nM	E (E, <20)	10 to 50 nM	E (E, <20)	–
O=C1NC2CC(COc3cc(ccn3)Nc3[nH]nc(c3F)C3C[C@@H](F)[C@H](C3)O1)C2 [Compound 231, (1^1R,1^3S,1^4R,7^1S,7^3R,E)-1^4,2^4-difluoro-2^1H-5,10-dioxa-3,8-diaza-4(4,2)-pyridina-2(3,5)-pyrazola-1(1,3)-cyclopentana-7(1,3)-cyclobutanacyclodecaphan-9-one]	10 to 50 nM	10 to 50 nM	50 to 100 nM	E (E, <20)	≤ 10 nM	100 to 500 nM	B (B, >100 and ≤500)	100 to 500 nM	B (B, >100 and ≤500)	> 500 nM	B (B, >100 and ≤500)	–
O=C1NC2CC(COc3cc(ccn3)Nc3[nH]nc(c3F)C3C[C@H](F)[C@@H](C3)O1)C2 [Compound 232, (1^1S,1^3R,1^4S,7^1R,7^3S,E)-1^4,2^4-difluoro-2^1H-5,10-dioxa-3,8-diaza-4(4,2)-pyridina-2(3,5)-pyrazola-1(1,3)-cyclopentana-7(1,3)-cyclobutanacyclodecaphan-9-one]	10 to 50 nM	50 to 250 nM	100 to 500 nM	E (E, <20)	10 to 50 nM	50 to 100 nM	E (E, <20)	100 to 500 nM	E (E, <20)	100 to 500 nM	E (E, <20)	–
